The values below are quoted from earlier work in patent publication US20120015404A1, “GENE CLUSTER FOR THU[…]” (HUAZHONG AGRICULTURAL UNIVERSITY, priority 2009, published 2012).

The conditions of series [1]: purified thuringiensin.
A further series has as its system A. obliqua. The note with it: third stage larvae.
In a further series the test system is larvae of housefly. The following applies: larvae of housefly take in thuringiensin.
The next series relates to Anastrepha ludens. The note with it: third stage larvae.
Another series concerns A. serpentine. The following applies: third stage larvae.
The subject of series [2] is larvae of Galleria mellonella.
Where [3] appears, read: low concentration, Helicoverpa armigera.

Regarding `Nc1ncnc2c1ncn2[C@@H]1O[C@H](CO[C@H]2[C@H](O)[C@@H](O)[C@@H](O[C@@H](C(=O)O)[C@H](O)[C@H](OP(=O)(O)O)[C@H](O)C(=O)O)O[C@@H]2CO)[C@@H](O)[C@H]1O` [thuringiensin], the mutagenicity entry in series [1] is listed as “no mutagenicity”. The LC50 in the series on A. obliqua was 0.512 μg/cm^2; in the series with Anastrepha ludens it was 0.641 μg/cm^2; with A. serpentine, 0.408 μg/cm^2. For the same molecule, the half lethal dose in the series with larvae of housefly was 0.5 µg/mL; in series [2] (larvae of Galleria mellonella, injected), 0.005 µg/g. For the same molecule, the “activity compared with E605” value in the series on Phaedon cochleariae, with Plutella maculipennis and with Pieris brassicae was “more than E605” in each case. Also, the “toxicity compared with E605” value with Aedes aegypti is reported as “less than E605”. In [2] (injected larvae of Galleria mellonella, times of that of DDT), the “toxicity relative to DDT” value is recorded as 1000 times.

With `Nc1ncnc2c1ncn2[C@@H]1O[C@H](CO[C@H]2[C@H](O)[C@@H](O)[C@@H](O[C@@H](C(=O)O)[C@H](O)[C@H](OP(=O)(O)O)[C@H](O)C(=O)O)O[C@@H]2CO)[C@@H](O)[C@H]1O` [thuringiensin A], in the series with Helicoverpa armigera (setting [3]), the acute lethal effect entry is reported as “no acute lethal effect”; the “effect on growth and development” value is reported as “unrecoverable inhibiting effect”. Moreover, the “weight of the neonate larvae” value in the series on Helicoverpa armigera (lowest testing concentration, 12 days) is “no apparent increase”.
